One data set relates to rodents. The settings on record: cited from earlier work.
Another data set concerns mouse spinal cord slices. More on the design: method as in PMID 15235081. As to conditions: exposure of mouse spinal cord slices for >10 min; cited from earlier work.
Data set [1] concerns rodent models of neuropathic pain. As to conditions: cited from earlier work.
Data set [2] concerns the target T1, GlyT2 (Homo sapiens, UniProt Q9Y345).
T1 construct: expressed in transfected cells; host or cells: Xenopus laevis oocytes injected with in vitro transcribed RNA
T1 sequence (Q9Y345 1-797): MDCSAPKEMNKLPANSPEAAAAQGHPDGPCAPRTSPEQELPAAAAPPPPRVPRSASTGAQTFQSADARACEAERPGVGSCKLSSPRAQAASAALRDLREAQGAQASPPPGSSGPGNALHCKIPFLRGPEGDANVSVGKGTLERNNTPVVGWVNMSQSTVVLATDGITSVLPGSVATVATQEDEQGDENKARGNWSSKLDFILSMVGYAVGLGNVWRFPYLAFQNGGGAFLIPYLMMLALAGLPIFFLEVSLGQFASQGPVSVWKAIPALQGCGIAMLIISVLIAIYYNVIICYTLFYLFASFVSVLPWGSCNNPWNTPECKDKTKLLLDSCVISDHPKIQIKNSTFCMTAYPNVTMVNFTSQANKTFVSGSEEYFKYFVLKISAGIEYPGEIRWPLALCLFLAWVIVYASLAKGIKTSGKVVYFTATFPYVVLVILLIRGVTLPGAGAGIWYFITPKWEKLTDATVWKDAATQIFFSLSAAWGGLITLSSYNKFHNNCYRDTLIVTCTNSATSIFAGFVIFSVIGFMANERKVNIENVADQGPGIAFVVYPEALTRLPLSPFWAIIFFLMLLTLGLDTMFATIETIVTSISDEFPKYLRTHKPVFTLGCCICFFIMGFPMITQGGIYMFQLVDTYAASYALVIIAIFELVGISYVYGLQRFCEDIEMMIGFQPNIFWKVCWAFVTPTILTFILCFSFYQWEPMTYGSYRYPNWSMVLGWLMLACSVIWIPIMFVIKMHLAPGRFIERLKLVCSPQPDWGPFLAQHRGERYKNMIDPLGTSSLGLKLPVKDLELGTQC
Briefly: Two-electrode voltage clamp of glycine transport currents in Xenopus laevis oocytes expressing GlyT2. The format is cell-based. The settings on record: for reversibility: restoration of glycine transport currents after washout: inhibition at IC50 concentrations (1: 4 nM, 2: 50 nM), washed with ND96 for 30 min, glycine reapplied at 5 min intervals; for IC50: oocytes expressing GlyT2, Figure 4A, range in brackets, read-out: IC50, reduction of glycine transport currents. (In general: Two-electrode voltage clamp is typically applied to oocytes expressing channels or transporters.)

The test system of data set [3] is GlyT2. More on the design: method as in PMID 23962079. The settings on record: cited from earlier work; for IC50: two-electrode voltage clamp, Xenopus laevis oocytes expressing GlyT2, read-out: IC50 at GlyT2 (potency); for reversibility of GlyT2 inhibition: washout from oocytes expressing GlyT2.
Details of data set [4]: method as in PMID 23962079. The settings on record: cited from earlier work.

Here are results for three compounds from article PMC7206614, “Photoswitchable ORG25543 Congener Enables Optical Control of Glycine Transporter 2” (ACS Chemical Neuroscience, 2020).

The structures appear in SMILES notation. “Also recorded” adds a separate entry of the source.

In general, IC50 refers to the point on the concentration scale where inhibition reaches its midpoint. What is called EC50 is the midpoint of the concentration-response curve.

As for `COc1cc(C(=O)NCC2(N(C)C)CCCC2)cc(OC)c1OCc1ccccc1` [ORG25543], the “toxicity on acute dosing in rodents” value in the data set on rodents is “excitotoxicity, hyperekplexia-like symptoms, and in severe cases death”. In addition, the “effect on inhibitory postsynaptic currents” value in the data set with mouse spinal cord slices was “long-term reduction of inhibitory postsynaptic currents”. In data set [1], the “effect on neuropathic pain (hyperalgesia and allodynia)” value is recorded as “ameliorates both hallmarks of neuropathic pain”. In addition, at GlyT2 [2], the “reversibility: restoration of glycine transport currents after washout” value is reported as “no reversibility” and the concentration for half-maximal inhibition (IC50) turned out to be 3.76 nM. Also, in the data set with GlyT2 [3], the 50% inhibitory concentration (IC50) was 20 nM and the “reversibility of GlyT2 inhibition” value is “irreversible; also recorded: cannot be restored”.

In the case of `COc1cc(C(=O)NCC2(N(C)C)CCCCC2)ccc1OCc1ccccc1` [compound 2], the adverse side effects entry in the data set on rodents (rodent) was “no adverse side effects”. Also, the “analgesia in rodent models of neuropathic pain” value in data set [1] is “produced analgesia”. Besides, at GlyT2 [2], the “reversibility: restoration of glycine transport currents after washout” value is “restoration of glycine transport currents” and the IC50 is 48.5 nM. In addition, in the data set with GlyT2 [3], the IC50 was 100 nM and the “reversibility of GlyT2 inhibition” value is given as “readily reversible; also recorded: allows for restoration of glycine currents”. Also, the “blood brain barrier permeability” value in data set [4] was “blood brain barrier permeable”.

For `NCC(=O)O` [glycine], the EC50 on GlyT2 [2] was found to be 14300 nM.
